The subject of the experiment is CDK8 (phosphorylation of STAT1 at serine 727 in A549 cells). In words: Cell based Phospho-STAT1 assay (IFNγ-stimulated A549 cells, AlphaLISA). The settings on record: Homo sapiens, A549, A549 cells, phospho-STAT1 after IFNγ stimulation. As to the method:
Determine Inhibitor Activity Against CDK8 in Cell Based Phospho-STAT1 Assay
This assay measures the phosphorylation of the CDK8 substrate STAT1 following Interferon-gamma (IFNγ) stimulation^1. The lung carcinoma cell line A549 is seeded in a 96 well plate in 50 μL of culture media at 5×10^4 cells/well and incubated at 37° C. overnight. Serial dilutions of compounds (in total volume of 50 μL culture media) are added to the cells and incubated at 37° C. for one hour. Human IFNγ (R&D Systems) is added to the cells at a 10 ng/mL final concentration. 4 wells containing DMSO treated cells stimulated with IFNγ serve as high controls and 4 wells containing DMSO treated unstimulated cells serve as low controls. After 30 minute IFNγ stimulation at 37° C., the culture media is removed and 50 μL of 1×AlphaLISA lysis buffer (PerkinElmer GA, USA) is added to each well. 5 μL cell lysate is transferred to a 384 well AlphaPlate (PerkinElmer GA, USA) and 5 μL containing 0.156 nM Phospho-STAT1 (Ser727) rabbit monoclonal antibody (Cell Signaling Technology), 0.156 nM Mouse Anti-STAT1 antibody (BD Transduction Laboratories), and 10 μg/mL Anti-rabbit IgG AlphaLISA acceptor beads (PerkinElmer GA, USA) diluted in 1× AlphaLISA immunoassay buffer (PerkinElmer GA, USA) is added to the cell lysates and incubated at room temperature for 90 minutes. 5 μL Anti-Mouse IgG Alpha donor beads diluted in 1× AlphaLISA immunoassay buffer (PerkinElmer GA, USA) is added to the reaction mixture and incubated at room temperature for 90 minutes. Upon excitation of these beads with laser light at 680 nm, singlet oxygen is produced. This singlet oxygen is rapidly quenched, unless the AlphaLISA Anti-Rabbit IgG acceptor beads are in close proximity, in which case a proximity signal can be measured at […]. In the presence of cellular CDK8 catalytic activity, there is a very strong proximity signal. Selective CDK8 inhibitors affect a decrease in this proximity signal through a decrease in phosphorylation of STAT1 at serine 727. The percentage inhibition at individual concentrations relative to high and low controls is calculated. The data are analyzed by using nonlinear regression to generate IC50 values.
In general terms: In Alpha technology, singlet oxygen from a donor bead excites a nearby acceptor bead.
One may read the IC50 as the concentration at which inhibition is half-maximal. A high value points to lower potency. `Cn1cc(-c2ccc(-c3cnc4cccc(N5CCC(O)CC5)n34)cc2)cn1` [Compound P-0397, 1-(3-(4-(1-methyl-1H-pyrazol-4-yl)phenyl)imidazo[1,2-a]pyridin-5-yl)piperidin-4-ol] displayed a concentration for half-maximal inhibition (IC50) of 100 to 1000 nM.

Compound `Cn1ncc2cc(-c3cnc4cccc(N5CCC(C#N)CC5)n34)ccc21` [Compound P-0361, 1-(3-(1-methyl-1H-indazol-5-yl)imidazo[1,2-a]pyridin-5-yl)piperidine-4-carbonitrile] registered a half-maximal inhibitory concentration (IC50) of 0.1 to 100 nM.

The compound `CNC(=O)C1CC=C(c2cccc3ncc(-c4ccc(-c5cnn(C)c5)cc4)n23)CC1` (centres unmarked) [Compound P-0417, N-methyl-4-(3-(4-(1-methyl-1H-pyrazol-4-yl)phenyl)imidazo[1,2-a]pyridin-5-yl)cyclohex-3-ene-1-carboxamide] had a half-maximal inhibitory concentration (IC50) of 100 to 1000 nM.

As for `N#CC1CCN(c2cccn3ncc(-c4ccc(-c5nc(C6CC6)no5)cc4)c23)CC1` [Compound P-0423, 1-(3-(4-(3-cyclopropyl-1,2,4-oxadiazol-5-yl)phenyl)pyrazolo[1,5-a]pyridin-4-yl)piperidine-4-carbonitrile], the concentration for half-maximal inhibition (IC50) was 0.1 to 100 nM.

Compound `CC(C)(C#N)COc1cccc2ncc(-c3ccc(-c4cnn(C(F)F)c4)cc3)n12` [Compound P-0355, 3-((3-(4-(1-(difluoromethyl)-1H-pyrazol-4-yl)phenyl)imidazo[1,2-a]pyridin-5-yl)oxy)-2,2-dimethylpropanenitrile] displayed an IC50 of 100 to 1000 nM.

`Cn1cc(-c2ccc(-c3cnn4cccc(N5CCC(C#N)(c6ccccn6)CC5)c34)cc2)cn1` [Compound P-0365, 1-(3-(4-(1-methyl-1H-pyrazol-4-yl)phenyl)pyrazolo[1,5-a]pyridin-4-yl)-4-(pyridin-2-yl)piperidine-4-carbonitrile] displayed a half-maximal inhibitory concentration (IC50) of 0.1 to 100 nM.

In the case of `Cn1cc(-c2ccc(-c3cnc4cccc(NC5CCOCC5)n34)cc2)cn1` [Compound P-0388, 3-(4-(1-methyl-1H-pyrazol-4-yl)phenyl)-N-(tetrahydro-2H-pyran-4-yl)imidazo[1,2-a]pyridin-5-amine], the IC50 fell in the range of 100 to 1000 nM.

`CS(=O)(=O)N1CCC(Oc2cccc3ncc(-c4ccc(-c5cnn(C(F)F)c5)cc4)n23)CC1` [Compound P-0298, 3-(4-(1-(difluoromethyl)-1H-pyrazol-4-yl)phenyl)-5-((1-(methylsulfonyl)piperidin-4-yl)oxy)imidazo[1,2-a]pyridine] showed an IC50 of 1000 to 10000 nM.

As to `O=S1(=O)CCC(Oc2cccc3ncc(-c4ccc(-c5cnn(C(F)F)c5)cc4)n23)CC1` [Compound P-0349, 4-((3-(4-(1-(difluoromethyl)-1H-pyrazol-4-yl)phenyl)imidazo[1,2-a]pyradin-5-yl)oxy)tetrahydro-2H-thiopyran 1,1-dioxide], the concentration for half-maximal inhibition (IC50) lay in the range of 100 to 1000 nM.

Compound `Cn1cc(-c2ccc(-c3cnc4cccc(OC5CCC(F)(F)CC5)n34)cc2)cn1` [Compound P-0372, 5-((4,4-difluorocyclohexyl)oxy)-3-(4-(1-methyl-1H-pyrazol-4-yl)phenyl)imidazo[1,2-a]pyridine] gave an IC50 of 1000 to 10000 nM.

Regarding `CC(C)(O)C#Cc1cccn2ncc(-c3ccc(NS(=O)(=O)C4CC4)cc3)c12` [Compound P-0412, N-(4-(4-(3-hydroxy-3-methylbut-1-yn-1-yl)pyrazolo[1,5-a]pyridin-3-yl)phenyl)cyclopropane-sulfonamide], the IC50 lay within 100 to 1000 nM.

Compound `Cn1cc(-c2ccc(-c3cnc4cccc(C5=CCN(S(C)(=O)=O)CC5)n34)cc2)cn1` [Compound P-0419, 3-(4-(1-methyl-1H-pyrazol-4-yl)phenyl)-5-(1-(methylsulfonyl)-1,2,3,6-tetrahydropyridin-4-yl)imidazo[1,2-a]pyridine] came in with an IC50 of 100 to 1000 nM.

`Cn1ncc2ccc(-c3cnn4cccc(N5CCC(C#N)(c6ccccn6)CC5)c34)cc21` [Compound P-0352, 1-(3-(1-methyl-1H-indazol-6-yl)pyrazolo[1,5-a]pyridin-4-yl)-4-(pyridin-2-yl)piperidine-4-carbonitrile] gave a half-inhibitory concentration (IC50) of 100 to 1000 nM.

Turning to `Cn1cc(-c2ccc(-c3c[nH]c4ncc(Br)c(N5CCC(C#N)CC5)c34)cc2)cn1` [Compound P-0432, 1-[5-bromo-3-[4-(1-methylpyrazol-4-yl)phenyl]-H-pyrrolo[2,3-b]pyridin-4-yl]piperidine-4-carbonitrile], the IC50 was 1000 to 10000 nM.

Compound `Cn1cc(-c2ccc(-c3cnn4cccc(C#CC5(O)COC5)c34)cc2)cn1` [Compound P-0368, 3-((3-(4-(1-methyl-1H-pyrazol-4-yl)phenyl)pyrazolo[1,5-a]pyridin-4-yl)ethynyl)oxetan-3-ol] came in with a half-maximal inhibitory concentration (IC50) of 0.1 to 100 nM.

Regarding `O=C1Nc2ccccc2C12CCN(c1cccc3ncc(-c4ccc(-c5cnn(C(F)F)c5)cc4)n13)CC2` [Compound P-0441, 1′-(3-(4-(1-(difluoromethyl)-1H-pyrazol-4-yl)phenyl)imidazo[1,2-a]pyridin-5-yl)spiro[indoline-3,4′-piperidin]-2-one], the IC50 fell in the range of 0.1 to 100 nM.

With `Cn1cc(C#Cc2cnc3cccc(C4=CCC(C#N)CC4)n23)cn1` (centres unmarked) [Compound P-0374, 4-(3-((1-methyl-1H-pyrazol-4-yl)ethynyl)imidazo[1,2-a]pyridin-5-yl)cyclohex-3-ene-1-carbonitrile], the half-inhibitory concentration (IC50) was in the range of 0.1 to 100 nM.

For the compound `Cn1cc(C#Cc2cnn3cccc(C4=CCC(C#N)CC4)c23)cn1` (centres unmarked) [Compound P-0433, 4-[3-[2-(1-methylpyrazol-4-yl)ethynyl]pyrazolo[1,5-a]pyridin-4-yl]cyclohex-3-ene-1-carbonitrile], the IC50 fell in the range of 0.1 to 100 nM.

Turning to `CC(C)(O)C#Cc1cccn2ncc(-c3ccc(OCCN4CCCCC4)cc3)c12` [Compound P-0406, 2-methyl-4-(3-(4-(2-(piperidin-1-yl)ethoxy)phenyl)pyrazolo[1,5-a]pyridin-4-yl)but-3-yn-2-ol], the IC50 is 100 to 1000 nM.

`Cn1cc(-c2ccc(-c3cnn4cccc(C#CC(O)c5ccccc5)c34)cc2)cn1` (centres unmarked) [Compound P-0426, 3-[3-[4-(1-methylpyrazol-4-yl)phenyl]pyrazolo[1,5-a]pyridin-4-yl]-1-phenyl-prop-2-yn-1-ol]: the IC50 was 0.1 to 100 nM.

For `Cn1cc(-c2ccc(-c3cnc4cccc(N5CCC(C)(C#N)CC5)n34)cc2)cn1` [Compound P-0401, 4-methyl-1-(3-(4-(1-methyl-1H-pyrazol-4-yl)phenyl)imidazo[1,2-a]pyridin-5-yl)piperidine-4-carbonitrile], the IC50 lay in the range of 0.1 to 100 nM.

`Cn1cc(-c2ccc(-c3cnc4ccc(C#N)c(N5CCC(C#N)CC5)n34)cc2)cn1` [Compound P-0339, 5-(4-cyanopiperidin-1-yl)-3-(4-(1-methyl-1H-pyrazol-4-yl)phenyl)imidazo[1,2-a]pyridine-6-carbonitrile]: the IC50 fell in the range of 100 to 1000 nM.

In turn, `Cn1cc(-c2ccc(-c3cnc4cccc(N5CCC6(CCNC6=O)CC5)n34)cc2)cn1` [Compound P-0450, 8-(3-(4-(1-methyl-1H-pyrazol-4-yl)phenyl)imidazo[1,2-a]pyridin-5-yl)-2,8-diazaspiro[4.5]decan-1-one] registered an IC50 of 0.1 to 100 nM.

Take `Cn1ncc2cc(-c3cnn4cccc(N5CCC(C#N)(c6ccccn6)CC5)c34)ccc21` [Compound P-0364, 1-(3-(1-methyl-1H-indazol-5-yl)pyrazolo[1,5-a]pyridin-4-yl)-4-(pyridin-2-yl)piperidine-4-carbonitrile]: the IC50 was 0.1 to 100 nM.

As for `Cn1cc(C#Cc2cnc3cccc(N4CCC(C#N)CC4)n23)cn1` [Compound P-0409, 1-(3-((1-methyl-1H-pyrazol-4-yl)ethynyl)imidazo[1,2-a]pyridin-5-yl)piperidine-4-carbonitrile], the IC50 lay in the range of 100 to 1000 nM.

Take `N#CC1CCN(c2c(-c3ccc4c(c3)OC(F)(F)O4)cnc3[nH]ccc23)CC1` [Compound P-0334, 1-(5-(2,2-difluorobenzo[d][1,3]dioxol-5-yl)-1H-pyrrolo[2,3-b]pyridin-4-yl)piperidine-4-carbonitrile]: the IC50 fell in the range of 100 to 1000 nM.

`NC(=O)N1CCC(Oc2cccc3ncc(-c4ccc(-c5cnn(C(F)F)c5)cc4)n23)CC1` [Compound P-0299, 4-((3-(4-(1-(difluoromethyl)-1H-pyrazol-4-yl)phenyl)imidazo[1,2-a]pyridin-5-yl)oxy)piperidine-1-carboxamide]: the 50% inhibitory concentration (IC50) was 1000 to 10000 nM.

Compound `Cn1cc(C#Cc2cnc3cccc(N4CCC(CC(N)=O)CC4)n23)cn1` [Compound P-0294, 2-(1-(3-((1-methyl-1H-pyrazol-4-yl)ethynyl)imidazo[1,2-a]pyridin-5-yl)piperidin-4-yl)acetamide] showed an IC50 of 1000 to 10000 nM.

`Cn1cc(-c2ccc(C3=C4C(C5CCC(C#N)CC5)=CC=CN4NC3)cc2)cn1` (centres unmarked) [Compound P-0302, 4-(3-(4-(1-methyl-1H-pyrazol-4-yl)phenyl)-1,2-dihydropyrazolo[1,5-a]pyridin-4-yl)cyclohexane-1-carbonitrile]: the IC50 lay in the range of 1000 to 10000 nM.

Values taken from US10703757B2, “Compounds and methods for CDK8 modulation and indications therefor” (Plexxikon Inc., priority 2016, dated 2020).
